Results: patent publication US9623031B2, “Compositions, methods and kits for treating cancer” (priority 2011, dated 2017)
Entries after “also recorded” stand apart in the source; their conditions may differ.

How the values were obtained:
[1] = test system: FV-LSCs (M34^+Kit^+Sca1^+); experiment: Apoptosis of FV-LSCs treated ex vivo (annexin V, flow cytometry); format: cell-based, mouse; conditions: 25 nM, 36 h; for apoptosis of FV-LSCs: annexin V
Procedure: On day 14 after infection, spleens were isolated and a single cell suspension of spleen cells was generated. The cells were filtered through a 70 μm sterile filter and flow-through cells were resuspended in RBC lysis buffer followed by centrifugation. Leukemia stem cells were isolated by FACS. Spleen cells were labeled with anti-Kit, Sca1 (BioLegend, San Diego, Calif.) and M34 antibodies. […] As indicated M34^+Kit^+Sca1^+ cells were cultured in Methocult media (Stem Cell Technologies Vancouver BC) M3334 supplemented with 200 ng/ml Sonic Hedgehog (Shh), 15 ng/ml bone morphogenetic protein-4 (BMP4) (both from R&D Systems Minneapolis, Minn.), and 50 ng/ml stem cell factor (SCF; Peprotech).
The cells were stained with annexin V-FITC and analyzed by flow cytometry. […] Means±s.e.m. *P<0.001 compared to vehicle (PBS). […] Inset: Effect of rosiglitazone on the apoptosis of LSC. Rosiglitazone (0.1-2.0 μM) was incubated with LSC in the culture media for 36 h as described earlier and the cells were subjected to annexin-V staining followed by flow cytometry. […] LSC were treated ex vivo with indicated concentrations of each compound for 36 h. Mean±s.e.m. shown *P<0.001.

[2] = test system: FV-LSCs transplanted into BALB/c-Stk^−/− mice
Procedure: Transplant of FV-LSCs into BALB/c-Stk^−/− mice: FV-LSCs were generated as described above. 2.5×10^5 FV-LSCs were transplanted into BALB/c-Stk^−/− mice by retro-orbital injection. Six weeks after transplant the mice were treated with CyPGs or vehicle control as indicated in the text.
Treatment of Mice with PGs: Mice with FV-induced erythroleukemia or MIGR-BCR-ABL induced CML were treated on the indicated days with CyPGs. Mice were treated with a daily intraperitoneal injection of Δ^12-PGJ3 (0.01-0.1 mg/kg), 15d-PGJ2 (0.1 mg/kg), or 9,10-dihydro-15d-PGJ2 (0.1 mg/kg) for 7 days. All three compounds were formulated with hydroxypropyl-β-cyclodextrin (30% w/v; Sigma; vehicle control).
Stk^−/− mice are resistant to Friend virus infection so the leukemia developed by the transplanted mice is result of the transplanted LSCs and not FV infection. […] LSCs sorted from the spleens of FV-infected mice were transplanted into Stk^−/− mice (on a Balb/c background). After 6 weeks such mice were treated daily for 1 week with vehicle (hydroxypropyl-β-cyclodextrin), 15d-PGJ2 (0.05 mg/kg), or 9,10-dihydro-15d-PGJ2 (0.05 mg/kg) by intraperitoneal injection. The mice were sacrificed 51 days post LSC transplantation for analysis. An analysis of spleens of mice comparing splenomegaly in vehicle, 15d-PGJ2, or 9,10-dihydro-15d-PGJ2 treated transplanted mice was performed. Spleen weight compared to control (untransplanted mice) after treatment and WBC counts in the peripheral blood of the mice after treatment were examined, and a flow cytometric analysis of the spleen of untransplanted and LSC transplanted mice after treatment was performed. All data were mean±s.e.m. *p<0.05 compared to control or 9,10-dihydro-15d-PGJ2 treated groups. N=5 per group.

[3] = test system: Friend virus (FV)-induced erythroleukemia; experiment: FV-induced erythroleukemia in FV-infected mice, intraperitoneal treatment; format: in vivo, mouse
Source text: FV-induced erythroleukemia and production of FV leukemia stem cells (FV-LSCs): BALB/c mice were infected with FV as previously described (Subramanian A et al., J Virol. 2008; 82:382-393; Harandi O F et al., J Clin Invest. 2010; 120:4507-4519). On day 14 after infection, spleens were isolated and a single cell suspension of spleen cells was generated. The cells were filtered through a 70 μm sterile filter and flow-through cells were resuspended in RBC lysis buffer followed by centrifugation. Leukemia stem cells were isolated by FACS. Spleen cells were labeled with anti-Kit, Sca1 (BioLegend, San Diego, Calif.) and M34 antibodies. M34 is a monoclonal antibody that recognizes the envelope protein of SFFV (Chesebro B et al., Virology. 1981; 112:131-144) and was used as previously described (Subramanian A et al., J Virol. 2008; 82:382-393). As indicated M34^+Kit^+Sca1^+ cells were cultured in Methocult media (Stem Cell Technologies Vancouver BC) M3334 supplemented with 200 ng/ml Sonic Hedgehog (Shh), 15 ng/ml bone morphogenetic protein-4 (BMP4) (both from R&D Systems Minneapolis, Minn.), and 50 ng/ml stem cell factor (SCF; Peprotech). For CFU-FV assays, cells were plated in methylcellulose media containing fetal calf serum, but lacking added growth factors as previously described (Mager D L et al., Proc Natl Acad Sci USA. 1981; 78:1703-1707).
Complete blood counts of mice treated with Δ^12-PGJ3 (0.05 mg/kg) were examined. There is no difference in treated mice and untransplanted control mice in terms of white blood cell counts, red blood cell counts or platelet counts. Changes in hematological parameters in FV-infected mice upon treatment with CyPGs were examined. FV-infected Balb/c mice were treated with Δ^12-PGJ3 (0.05 mg/kg) intraperitoneally for 7 d following which the mice were sacrificed and hematological parameters were analyzed on an Advia blood analyzer. FV-infected Δ^12-PGJ3 treated mice were compared to infected vehicle controls. N=5 per group, all data are means±s.e.m. *P<0.05. 3% w/v hydroxypropyl-3-cyclodextrin was used as a vehicle in in vivo experiments. Spleen sizes of FV-infected mice that were treated with either vehicle, 9,10-dihydro-15d-PGJ2 (0.05 mg/kg), or 15d-PGJ2 (0.05 mg/kg) were examined; N=3 pre group. Hematological parameters of Balb/c uninfected, infected, and 15d-PGJ2 treated mice were examined. N=5 per group. All data were means±s.e.m. *P<0.05.
FV-LSC were targeted by 15d-PGJ2 in the spleen of FV-infected mice. FV-infected mice were treated with 15d-PGJ2 or 9,10-dihydro-15d-PGJ2 at 0.05 mg/kg for 7 d. The splenic LSC (M34^+Sca1^+Kit^+) cells were analyzed by flow cytometry on day 14 post infection. […] Uninfected and infected vehicle controls were used for comparison. N=3; *P<0.05. […] The colonies were counted 10-14 days after plating. N=3 mice per group, *p<0.05.

[4] = test system: BCR-ABL^+LSC (Kit^+Sca1^+Lin^−GFP^+); experiment: Apoptosis of BCR-ABL+ LSCs treated ex vivo (annexin V, flow cytometry); format: cell-based, mouse; conditions: for apoptosis of Sca1+GFP+Kit+ BCR-ABL+LSC from spleen: 25-1000 nM, 36 h
Procedure: Apoptosis. Apoptosis of LSCs was performed using annexin V as described below in Supplementary Information and Methods.
Apoptosis. The LSCs were diluted in DMEM, resuspended using a 16-gauge needle, and collected by centrifugation. 1×10^5 cells were resuspended in 200 μl of binding buffer (0.1 M HEPES with 1.4 M NaCl, 25 mM CaCl2, pH 7.4). Annexin V FITC (BD Biosciences) was incubated with cells for 15 min on ice followed by flow cytometric analysis.
The ability of CyPGs derived from arachidonic acid (2 series PGs) to induce apoptosis was tested in cultures of LSCs from FV infected mice and in the murine CML model. […] 15d-PGJ2 is known as a PPAPγ agonist. […] In FIG. 7C Δ^12-PGJ3, 15d-PGJ2 or 9,10-dihydro-15d-PGJ2 are tested for their ability to induce apoptosis in a murine CML model. […] The cells were stained with annexin V-FITC and analyzed by flow cytometry. Representative of N=4. […] Inset: Effect of rosiglitazone on the apoptosis of LSC. Rosiglitazone (0.1-2.0 μM) was incubated with LSC in the culture media for 36 h as described earlier and the cells were subjected to annexin-V staining followed by flow cytometry. […] LSC were treated ex vivo with indicated concentrations of each compound for 36 h.
Following 36 h of incubation, apoptotic cells were quantified by annexin V staining. […] In a related study to address if Δ^12-PGJ3 treatment would cause any degranulation of granulocytes, a rat basophilic cell line ([…]) was treated with 100 nM Δ^12-PGJ3 and the degranulation was followed by quantitating the release of histamine and a second marker of degranulation, hexoseaminidase.
In this experiment, 500,000 BCR-ABL+ LSCs were plated in a 24-well plate followed and were treated with 25 nM PGD2Me or 100 nM ZK118182 (both are agonists of DP) for 24 h. GFP^+ cells were analyzed by flow cytometry. These agonists were purchased from Cayman Chemicals, MI.

LSCs = experiment: Apoptosis of LSCs as summarised in the discussion (model not specified or both models); format: cell-based, mouse; conditions: FV-induced leukemia and BCR-ABL+ retrovirus-based murine CML model
p53 = p53 expression in FV-LSCs treated ex vivo (RT-PCR, nuclear extracts); format: cell-based, mouse
[5] = test system: murine erythroleukemia (MEL) cells; experiment: MEL cell apoptosis and viability (MTT, CCK-8); format: cell-based, mouse; conditions: anti-leukemic drugs 1 μM, nutlin 5 μM, 24 h, MTT/CCK-8
Procedure: Cell culture. Murine erythroleukemia (MEL) cells were cultured in DMEM with 10% FBS. In order to examine the production 3-series PGs, BALB/c-derived RAW264.7 macrophage-like cells (ATCC) were cultured in DMEM containing 5% FBS, 250 nM sodium selenite, and 50 μM EPA (as BSA conjugate) for 72 h followed by stimulation with E. coli endotoxin lipopolysaccharide (LPS; Serotype 0111B4; 50 ng/ml) for 30 min. The cells were cultured in fresh DMEM for an additional 24-144 h. Cells cultured with cell culture-grade fatty acid free BSA (Sigma Aldrich) served as a control. Culture media was withdrawn at various times and analyzed for 3-series PGs as described below. Total RNA was isolated from cells or tissues using Trizol reagent as per the instructions of the supplier (Invitrogen, Carlsbad, Calif.) and cDNA was prepared using a High Capacity cDNA Reverse Transcriptase kit (Applied Biosystems, Foster City, Calif.). Semiquantitative RT-PCR for p53 and β-actin was performed with primers as described in Supplementary Methods. Nuclear and cytoplasmic protein extracts of LSCs were prepared using standard methods previously described (Vunta H et al., J Biol Chem. 2007; 282:17964-17973).
Cell viability studies. MEL cells were cultured in DMEM containing 10% FBS and treated with various commonly used anti-leukemic drugs such as daunorubicin (DNR), mitoxantrone (MIT), and cytarabine (CYT) at a final concentration […] for 24 h. […] After 24 h of drug treatment, cell proliferation was measured by MTT assay with CCK-8 kit from Dojindo Molecular Technologies, Inc. (Gaithersburg, Md.). All viability values reported are relative to untreated cells (UT) that was designated to be 100%. Results represent the mean±SEM of three independent observations.
In order to address whether MEL cells are resistant in general to chemotherapy agents, we tested whether MEL cells can be killed by apoptosis when treated with standard anti-leukemia drugs. Treatment with various commonly used anti-leukemic drugs such as daunorubicin (DNR), mitoxantrone (MIT), and cytarabine (CYT) at a final concentration 1 μM for 24 h. […] After 24 h of drug treatment, cell proliferation was measured by MTT assay with CCK-8 kit from Dojindo Molecular Technologies, Inc. (Gaithersburg, Md.). […] The results represent the mean±SEM of three independent observations.

CCCCC/C=C/C=C1/C(=O)C=C[C@@H]1C/C=C\CCCC(=O)O [15d-PGJ2, reference compound]
apoptosis of FV-LSCs [1]: able to induce apoptosis; also recorded: Responses similar to Δ^12-PGJ3 | hematocrit, WBC counts and reticulocyte counts ([2]; FV-induced leukemia, FIG. 3C): significantly decreased | LSCs (M34+Sca1+Kit+) in the spleen ([2]; flow cytometry after 1 week i.p. treatment): eradication of FV LSCs in the spleen and resolution of the diseases | LSCs (Sca1+Kit+M34+) in the spleen ([3]; 0.05 mg/kg i.p. 7 d, flow cytometry day 14 post infection): significant decrease in LSC numbers; also recorded: Identical results | total leukocyte and reticulocyte counts ([3]; i.p. 7 days): decreased to normal levels | Friend virus viral replication ([3]; mouse, in vivo): does not affect Friend virus viral replication | CFU-FV colony formation ([3]; spleen cells of treated mice plated without growth factors): significantly decreased the number of transformed leukemia cells | apoptosis of Sca1+GFP+Kit+ BCR-ABL+LSC from spleen [4]: active; also recorded: significantly increased their apoptosis

CC/C=C\C/C=C/C=C1/C(=O)C=C[C@@H]1C/C=C\CCCC(=O)O [15d-PGJ3, reference compound]
increase in apoptosis of FV-LSCs [1]: ~75% | targeting of LSCs for apoptosis (LSCs): targeted LSCs for apoptosis

O=C(NC(NC(=S)Nc1ccc(F)c([N+](=O)[O-])c1)C(Cl)(Cl)Cl)C(c1ccccc1)c1ccccc1 (stereo not shown) [CGK-733]
block of Δ^12-PGJ3-dependent p53 expression by ATM inhibitors (p53; preincubation, then Δ^12-PGJ3): blocked the CyPG-dependent expression of p53

CS(=O)(=O)c1cc(F)cc2c3c(n(Cc4ccc(Cl)cc4)c12)[C@@H](CC(=O)O)CC3 [MK0824]
inhibition of Δ^12-PGJ3-induced apoptosis by DP antagonist ([4]; antagonist 10 nM, 2 h pretreatment, then 25 nM Δ^12-PGJ3, 36 h): inhibited

CCCCC[C@H](O)/C=C/[C@H]1C(=O)C[C@H](O)[C@@H]1C/C=C\CCCC(=O)OC [PGD2Me, 9α,15S-dihydroxy-11-oxo-prosta-5Z,13E-dien-1-oic acid, methyl ester]
apoptosis of BCR-ABL+ LSCs by synthetic DP agonists (GFP+ cells) ([4]; 25 nM PGD2Me or 100 nM ZK118182, 24 h): can induce apoptosis of LSCs

CCCCC[C@H](O)/C=C/[C@H]1C(=O)C=C[C@@H]1C/C=C\CCCC(=O)O [PGJ2]
apoptosis of FV-LSCs [1]: largely ineffective | p53 expression at transcript level (p53; 10 or 25 nM, 12 h): only a minor degree | p53 expression after preincubation of compound with media (p53; preincubated at 37° C. for 42 h before adding LSCs): increased expression of p53

CC/C=C\C[C@H](O)/C=C/[C@H]1C(=O)C=C[C@@H]1C/C=C\CCCC(=O)O [PGJ3, reference compound]
increase in apoptosis of FV-LSCs [1]: 2 fold | targeting of LSCs for apoptosis (LSCs): ineffective

Nc1ccn([C@@H]2O[C@H](CO)[C@@H](O)[C@@H]2O)c(=O)n1 [cytarabine]
sensitivity of MEL cells to drugs [5]: caused significant apoptosis; also recorded: exhibited sensitivity

COc1cccc2c1C(=O)c1c(O)c3c(c(O)c1C2=O)C[C@@](O)(C(C)=O)C[C@@H]3O[C@H]1C[C@H](N)[C@H](O)[C@H](C)O1 [daunorubicin]
sensitivity of MEL cells to drugs [5]: caused significant apoptosis; also recorded: exhibited sensitivity

O=C1c2c(O)ccc(O)c2C(=O)c2c(NCCNCCO)ccc(NCCNCCO)c21 [mitoxantrone]
sensitivity of MEL cells to drugs [5]: caused significant apoptosis; also recorded: exhibited sensitivity

COc1ccc(C2=NC(c3ccc(Cl)cc3)C(c3ccc(Cl)cc3)N2C(=O)N2CCNC(=O)C2)c(OC(C)C)c1 (stereo not shown) [nutlin]
sensitivity of MEL cells to drugs [5]: not | sensitivity of MEL cells to drugs ([5]; listed as Nutlin): lack of activation of p53 and apoptosis

CCCCC[C@H](O)C/C=C1/C(=O)C=C[C@@H]1C/C=C\CCCC(=O)O [Δ^12-PGJ2]
apoptosis of FV-LSCs [1]: able to induce apoptosis; also recorded: Responses similar to Δ^12-PGJ3 | apoptosis of Sca1+GFP+Kit+ BCR-ABL+LSC from spleen [4]: active
